Read-outs that look alike come from different tables or passages of the source.
Assays:
[1] = Lung microsome metabolic stability, human; format: in vitro ADME; conditions: 1 μM test item, 60 minutes, NADPH
Experimental: (§1) Metabolic stability studies were conducted using rat, dog and human lung microsomes. The protocol for the studies with rat, dog, and human lung microsomes (from Xenotech, USA) is provided below.
(§2) 0.4 mg protein was preincubated with 2 mM NADPH (cofactor) in phosphate buffer (pH˜7.4) for 15 minutes at […] and then added with 1 μM test item and incubated further for 60 minutes in triplicate. The reaction mixture was terminated with methanol containing an internal standard and centrifuged further to analyze the test item remaining in the supernatant by LC-MS/MS. The percent parent compound remaining was calculated in comparison with similar samples terminated at 0 minutes.

[2] = 7-day repeat dose safety study; format: in vivo, Wistar Rats
Experimental: In order to determine the safety of roflumilast N-oxide by inhalation compared to roflumilast by oral administration, a 7- and 14-day repeat dose safety study was conducted according to the protocol given in Table 5 below.

[3] = Lung microsome metabolic stability, rat; format: in vitro ADME; conditions: rat lung microsomes, 1 μM test item, 60 minutes, NADPH
Experimental: as §1, §2

[4] = system: neutrophil infiltration (LPS-induced neutrophilia in BALF); test: Lipopolysaccharide (LPS) induced pulmonary neutrophilia; format: in vivo, female Sprague-Dawley rat; conditions: for ED50: Rattus norvegicus, Neutrophil, read-out: 50% inhibition (ED50) dose, neutrophil infiltration
Experimental: Roflumilast was prepared as a suspension in a suitable vehicle for oral administration. For intratracheal administration, roflumilast or roflumilast N-oxide was prepared as a dry powder mixture and administered by using a dry powder Insufflator (Penn-Century, USA) Animals were anaesthetized with ketamine and LPS solution was administered intratracheally one hour after roflumilast (at a dose of 0.3, 1, 3, and 10 mg/kg orally), or 30 minutes after roflumilast (at a dose of 10, 30 and 100 μg/kg i.t) or roflumilast N-oxide administration (at a dose of 10, 30 and 100 μg/kg, i.t). 6 hours after LPS instillation, animals were exsanguinated under anaesthesia, and then trachea were cannulated and the lungs were lavaged with 5-ml aliquots of heparinised PBS (1 unit/ml) four times through tracheal cannula (total volume 20 ml). BAL (bronchoalveolar lavage) fluid was stored at 2-8° C. until assayed for total cell and differential leukocyte count. Bronchioalveolar fluid was centrifuged (500×g for 10 minutes) and the resulting cell pellet was resuspended in 0.5 ml of heparinized saline. The total number of white blood cells were determined in BAL fluid using a blood cell counter and were adjusted to 1×10^6 cell/ml. Differential cell count was calculated manually. One hundred microliters of the cell suspension was centrifuged using cytospin 3 to prepare a cell smear. The cell smear was stained with a blood staining solution for differentiation and slides were microscopically observed to identify eosinophil according to their morphological characteristics. The number of each cell type among 300 white blood cells in the cell smear was determined and expressed as a percentage. The total number of neutrophils in each BAL fluid was calculated.
Roflumilast and roflumilast N-oxide were administered intratracheally (i.t) at doses of 100, 30, and 10 μg/kg as 1:200; 1:500; and 1:1000 drug:lactose blends, respectively.

[5] = roflumilast n = 4438; count, second figure in brackets; cited from earlier work
[6] = Lung microsome metabolic stability, dog; format: in vitro ADME; conditions: dog lung microsomes, 1 μM test item, 60 minutes, NADPH
Experimental: as §1, §2

[7] = system: macrophage infiltration; test: Acute cigarette smoke induced cell infiltration, macrophages; format: in vivo, female Balb/c mice; conditions: for Percent inhibition in macrophage infiltration: oral, day 1 to day 4
Experimental: (§3) Animals were acclimatized for seven days prior to the start of the experiment. The animals were randomly distributed to various groups based on their body weight. For oral administration of roflumilast and for intranasal administration of roflumilast N-oxide, roflumilast or roflumilast N-oxide were prepared as a suspension in a suitable vehicle. On day 1, mice were administered roflumilast N-oxide or roflumilast and after 1 hour, the animals were placed in a whole body exposure box. On day 1 and day 2, the mice were exposed to the mainstream smoke of 6 cigarettes, and 8 cigarettes on day 3 and day 4. Exposure to the smoke of each cigarette lasted for 10 minutes (cigarettes were completely burned in the first two minutes and followed by an air flow with animal ventilator, then 20 minutes exposure to fresh room air). After every second cigarette an additional break of 20 minutes with exposure to fresh room air was conducted. Control animals were exposed to room air chamber. From day 1 to day 4, the animals were administered roflumilast N-oxide or roflumilast. On day 5, 24 hours after the last cigarette smoke (CS) exposure, the animals were exsanguinated under anaesthesia, the trachea were cannulated and the lungs were lavaged with 0.5-ml aliquots of heparinised PBS (1 unit/ml) four times through tracheal cannula (total volume 2 ml). Bronchioalveolar (BAL) collected was stored at 2-8° C. until assayed for total cell and differential leukocyte count. BAL fluid was centrifuged (500×g for 10 minutes) and the resulting cell pellet was resuspended in 0.5 ml of heparinised saline. The total number of white blood cells was determined in BAL fluid and adjusted to 1×10^6 cell/ml. Differential cell count was calculated manually by diff-quick staining. Forty microliters of the cell suspension was centrifuged using cytospin 3 to prepare a cell smear. The cell smear was stained with a blood staining solution for differentiation and microscopically observed to identify cell type according to their morphological characteristics. The number of each cell type among 300 white blood cells in the cell smear were determined and expressed as a percentage, and the number of neutrophils and macrophages in each BAL fluid were calculated.
(§4) Roflumilast and roflumilast N-oxide as a suspension in polysorbate 80 (1% v/v) and methyl cellulose (MC) (0.5% w/v) were used for oral and intranasal administration respectively.

[8] = system: neutrophil infiltration; test: Acute cigarette smoke induced cell infiltration, neutrophils; format: in vivo, female Balb/c mice; conditions: for Percent inhibition in neutrophil infiltration: oral, day 1 to day 4
Experimental: as §3, §4

## O=C(Nc1c(Cl)cncc1Cl)c1ccc(OC(F)F)c(OCC2CC2)c1 [Roflumilast]
[1]; human non smoker lung microsomes
  Percent Parent Compound Remaining, Human Non Smoker: 99.8%
[1]; human smoker lung microsomes
  Percent Parent Compound Remaining, Human Smoker: 98.8%
[2]; Oral, 10 mg/Kg/day, 7 days
  MORTALITY: 1M animal died on day 7
[2]; Wistar, rat, in vivo, 7 days
  Multiple of ED50 at which toxic: 5.5 fold
[2]; rat, in vivo, po, 10 mg/kg
  Overall safety in repeat dose study: showed significant toxicity
[2]; rat, in vivo, po, 10 mg/kg/day
  CLINICAL CHEMISTRY: Yes, reduced serum
  CLINICAL SIGNS: Abnormal clinical
  GROSS PATHOLOGY: Yes, treatment related
  HEMATOLOGY: Yes, elevated WBC
[3]
  Percent Parent Compound Remaining, Rat: 97.1%
[4]; inhaled or nasal, intratracheal administration
  ED50: 0.026 mg/kg
[4]; oral administration
  ED50: 1.8 mg/kg
[4]; intratracheal dry powder, 10 μg/kg, 30 minutes before LPS
  Percent inhibition in neutrophil infiltration: 31.76%
[4]; intratracheal dry powder, 30 μg/kg, 30 minutes before LPS
  Percent inhibition in neutrophil infiltration: 60.47%
[4]; intratracheal dry powder, 100 μg/kg, 30 minutes before LPS
  Percent inhibition in neutrophil infiltration: 64.40%
[4]; oral, 0.3 mg/kg, one hour before LPS, BAL 6 hours after LPS
  Percent inhibition in neutrophil infiltration: −7.89%
[4]; oral, 1 mg/kg, one hour before LPS, BAL 6 hours after LPS
  Percent inhibition in neutrophil infiltration: 43.46%
[4]; oral, 3 mg/kg, one hour before LPS, BAL 6 hours after LPS
  Percent inhibition in neutrophil infiltration: 68.02%
[4]; oral, 10 mg/kg, one hour before LPS, BAL 6 hours after LPS
  Percent inhibition in neutrophil infiltration: 92.21%
[5]
  AEs: Back pain: 142 (3.2)
  AEs: Decreased appetite: 91 (2.1)
  AEs: Diarrhoea: 420 (9.5)
  AEs: Dizziness: 92 (2.1)
  AEs: Headache: 195 (4.4)
  AEs: Influenza: 124 (2.8)
  AEs: Insomnia: 105 (2.4)
  AEs: Nausea: 209 (4.7)
  AEs: Weight loss: 331 (7.5)
[6]
  Percent Parent Compound Remaining, Dog: 97.4%
[7]; Mus musculus, Macrophage, oral administration, read-out: 50% inhibition (ED50) dose, macrophage infiltration
  ED50: 3.5 mg/kg
[7]; 1 mg/kg (b.i.d. per FIG. 4)
  Percent inhibition in macrophage infiltration: 22.2%
[7]; 3 mg/kg (b.i.d. per FIG. 4)
  Percent inhibition in macrophage infiltration: 51.00%
[7]; 10 mg/kg (b.i.d. per FIG. 4)
  Percent inhibition in macrophage infiltration: 69.11%
[8]; Mus musculus, Neutrophil, oral administration, read-out: 50% inhibition (ED50) dose, neutrophil infiltration
  ED50: 1.75 mg/kg
[8]; 1 mg/kg (b.i.d. per FIG. 4)
  Percent inhibition in neutrophil infiltration: 70.85%
[8]; 3 mg/kg (b.i.d. per FIG. 4)
  Percent inhibition in neutrophil infiltration: 73.69%
[8]; 10 mg/kg (b.i.d. per FIG. 4)
  Percent inhibition in neutrophil infiltration: 83.01%
